pIC50: −log10 of the molar value. Read-outs that look alike come from different tables or passages of the source.
Assays:
KB cells = type: cell-based, human; details: read-out: IC50 value, 3H-thymidine incorporation
Method: The conjugates described herein were evaluated using an in vitro cytotoxicity assay that predicted the ability of the drug to inhibit the growth of the corresponding targeted cells, such as, but not limited to the following
It is to be understood that the choice of cell type can be made on the basis of the susceptibility of those selected cells to the drug that forms the conjugate, and the relative expression of the cell surface receptor or target antigen. The test conjugates were conjugates of a cell surface receptor or target antigen binding compound and PBD prodrugs, poly-PBD prodrugs, and mixed PBDs, as described herein. The test cells were exposed to varying concentrations of the conjugates, and optionally also in the absence or presence of at least a 100-fold excess of the unconjugated cell surface receptor or target antigen binding compound for competition studies to assess activity as being specific to the cell surface receptor or target antigen.
KB cells were seeded in individual 24-well Falcon plates and allowed to form nearly confluent monolayers overnight in folate free Roswell Park Memorial Institute (FFRPMI)/Heat-Inactivated Fetal Calf Serum (HIFCS). Thirty minutes prior to the addition of folate-conjugate, spent medium was aspirated from all wells and replaced with either fresh FFRPMI or FFRPMI supplemented with 100 μM folic acid. […] Cells were pulsed for 2 h at 37° C., rinsed 4 times with 0.5 mL of medium and then chased in 1 mL of fresh medium up to 72 h. Spent medium was aspirated from all wells and replaced with fresh medium containing 5 μCi/mL of ^3H-thymidine. Following a 2 h incubation at 37° C., cells were washed 3 times with 0.5 mL of PBS and then treated with 0.5 mL of ice-cold 5% trichloroacetic acid per well. After 15 min, the trichloroacetic acid was aspirated and the cells solubilized by the addition of 0.5 mL of 0.25 N sodium hydroxide for 15 min at room temperature. Four hundred and fifty […] of each solubilized sample were transferred to scintillation vials containing 3 mL of Ecolume scintillation cocktail and counted in a liquid scintillation counter. Final results were expressed as the percentage of ^3H-thymidine incorporation relative to untreated controls.

KB tumor = assay: Antitumor activity in large KB tumor model; type: in vivo, mice; details: 0.5 μmol/kg SIW for two weeks
Method: Female Balb/c nu/nu mice were fed ad libitum with folate-deficient chow (Harlan diet #TD01013) for the duration of the experiment. KB tumor cells were inoculated subcutaneously at the right flank of each mouse. Mice were dosed after the tumors reached an average of 100 and 180 mm^3 through the lateral tail vein under sterile conditions in a volume of […] of phosphate-buffered saline (PBS).
Growth of each s.c. tumor was followed by measuring the tumor two times per week. Tumors were measured in two perpendicular directions using Vernier calipers, and their volumes were calculated as 0.5×L×W^2, where L=measurement of longest axis in mm and W=measurement of axis perpendicular to L in mm.

[1] = with excess folate (100 μM folic acid)
[2] = without excess folate, 2 h pulse, chase up to 72 h

SMILES | pIC50 (KB cells; [1]) | pIC50 (KB cells; [2]) | KB tumor size compared to untreated control (KB tumor)
C=C1C[C@H]2C=Nc3cc(OCCCCCOc4cc(NC(=O)OCCSSC[C@@H](C)NC(=O)CCOCCOCCOCCOCCNC(=O)[C@H](CC(=O)O)NC(=O)[C@H](CC(=O)O)NC(=O)[C@H](CCCNC(=N)N)NC(=O)[C@H](CC(=O)O)NC(=O)CC[C@H](NC(=O)c5ccc(NCc6cnc7nc(N)[nH]c(=O)c7n6)cc5)C(=O)O)c(C(=O)N5CC(=C)C[C@H]5/C=N/OC)cc4OC)c(OC)cc3C(=O)N2C1 [Conjugate 26] | 8.80 | 10.55 | –
C=C1C[C@H]2C=Nc3cc(OCCCCCOc4cc(NC(=O)OCC(C)(C)SSCCC(=O)NCCNC(=O)CCOCCOCCOCCOCCOCCOCCOCCOCCOCCOCCOCCOCCNC(=O)CCN5C(=O)CC(SC[C@H](NC(=O)[C@H](CC(=O)O)NC(=O)[C@H](CC(=O)O)NC(=O)[C@H](CCCNC(=N)N)NC(=O)[C@H](CC(=O)O)NC(=O)CC[C@H](NC(=O)c6ccc(NCc7cnc8nc(N)[nH]c(=O)c8n7)cc6)C(=O)O)C(=O)O)C5=O)c(C(=O)N5CC(=C)C[C@H]5/C=N/OC)cc4OC)c(OC)cc3C(=O)N2C1 (some centres unmarked) [Conjugate 20] | 9.15 | 10.40 | decreased KB tumor size
C=C1C[C@H]2C=Nc3cc(OCCCCCOc4cc5c(cc4OC)C(=O)N4CC(=C)C[C@H]4C(O)N5C(=O)OCC(C)(C)SSCCC(=O)NCCNC(=O)CCOCCOCCOCCOCCNC(=O)CCN4C(=O)CC(SC[C@H](NC(=O)[C@H](CC(=O)O)NC(=O)[C@H](CC(=O)O)NC(=O)[C@H](CCCNC(=N)N)NC(=O)[C@H](CC(=O)O)NC(=O)CC[C@H](NC(=O)c5ccc(NCc6cnc7nc(N)[nH]c(=O)c7n6)cc5)C(=O)O)C(=O)O)C4=O)c(OC)cc3C(=O)N2C1 (some centres unmarked) [Conjugate 24] | 8.74 | 10.10 | –
C=C1C[C@H]2C=Nc3cc(OCCCCCOc4cc(N)c(C(=O)N5CC(=C)C[C@H]5C5OCCN5C(=O)OCC(C)(C)SSCCC(=O)NCCNC(=O)CCCCCN5C(=O)CC(SC[C@H](NC(=O)[C@H](CC(=O)O)NC(=O)[C@H](CC(=O)O)NC(=O)[C@H](CCCNC(=N)N)NC(=O)[C@H](CC(=O)O)NC(=O)CC[C@H](NC(=O)c6ccc(NCc7cnc8nc(N)[nH]c(=O)c8n7)cc6)C(=O)O)C(=O)O)C5=O)cc4OC)c(OC)cc3C(=O)N2C1 (some centres unmarked) [Conjugate 22] | 8.85 | 9.85 | –
C=C1C[C@H]2C=Nc3cc(OCCCCCOc4cc(NC(=O)OCC(C)SSC[C@H](NC(=O)CCOCCOCCOCCOCCNC(=O)[C@H](CC(=O)O)NC(=O)[C@H](CC(=O)O)NC(=O)[C@H](CCCNC(=N)N)NC(=O)[C@H](CC(=O)O)NC(=O)CC[C@H](NC(=O)c5ccc(NCc6cnc7nc(N)[nH]c(=O)c7n6)cc5)C(=O)O)C(=O)O)c(C(=O)N5CC(=C)C[C@H]5/C=N/OC)cc4OC)c(OC)cc3C(=O)N2C1 (some centres unmarked) [Conjugate 27] | 8.21 | 10.04 | –
C=C1C[C@H]2C=Nc3cc(OCCCCCOc4cc(NC(=O)OCCCSSC[C@H](NC(=O)[C@H](CC(=O)O)NC(=O)[C@H](CC(=O)O)NC(=O)[C@H](CCCNC(=N)N)NC(=O)[C@H](CC(=O)O)NC(=O)CC[C@H](NC(=O)c5ccc(NCc6cnc7nc(N)[nH]c(=O)c7n6)cc5)C(=O)O)C(=O)O)c(C(=O)N5CC(=C)C[C@H]5/C=N/OC)cc4OC)c(OC)cc3C(=O)N2C1 [Conjugate 31] | – | 9.19 | –
C=C1C[C@H]2C=Nc3cc(OCCCCCOc4cc(NC(=O)OCCSSC(C)(C)[C@H](NC(=O)[C@H](CC(=O)O)NC(=O)[C@H](CC(=O)O)NC(=O)[C@H](CCCNC(=N)N)NC(=O)[C@H](CC(=O)O)NC(=O)CC[C@H](NC(=O)c5ccc(NCc6cnc7nc(N)[nH]c(=O)c7n6)cc5)C(=O)O)C(=O)O)c(C(=O)N5CC(=C)C[C@H]5/C=N/OC)cc4OC)c(OC)cc3C(=O)N2C1 [Conjugate 32] | 7.24 | 8.70 | –
